Patent publication US8546095B2, “Methods for determination of calcineurin activity and uses in predicting therapeutic outcomes” (Emory University, priority 2007, dated 2013)
“Also recorded” adds a separate entry of the source. Values belong to the molecule of their own block, whether it stands above or below them.

Experiments:
calcineurin [1] = test: Fluorimetric calcineurin assay in cultured primary renal fibroblasts
Experimental: FIG. 16A: Cultured renal fibroblasts were treated with a variety of stimuli including arginine vasopressin (AVP), dexamethasone, and phorbol myristate acetate (PMA) to induce calcineurin activity. In addition, some cells were pre-treated with calcineurin inhibitors prior to the addition of PMA. Cells were lysed according to previously established methods and then calcineurin activity was determined. Data shown is the mean+/−SEM of triplicate samples compared to a standard curve. […] Tissues were lysed according to previously established methods and calcineurin activity determined. Data shown are the mean+/−SEM of triplicate samples compared to a standard curve.
When the absorbance values obtained were compared to a standard curve of recombinant calcineurin run simultaneously, a determination of calcineurin activity in each condition can be made.

recombinant calcineurin = molecular target: T1, recombinant calcineurin (Homo sapiens, UniProt Q08209); test: Fluorimetric calcineurin assay with recombinant calcineurin and standard controls; format: biochemical; conditions: 0.2 ng recombinant calcineurin, ANOVA
T1 construct: purchased Calbiochem (San Diego, Calif.)
Experimental: Reactions using 0.2 ng of recombinant calcineurin along with standard controls for calcineurin activity, including heat inactivation of the recombinant enzyme, addition of an autoinhibitory peptide, absence of calcium, and chelation of calcium with EGTA were investigated.
Recombinant calcineurin was from Calbiochem (San Diego, Calif.), and all other chemicals were obtained from Sigma (St Louis, Mo.). The RII peptide, Fluoresceinyl-[…]frican-AmericanE, and its phosphorylated analog (Fluoresceinyl-[…]pSVAfrican-AmericanE where pS=L-phosphoserine) were synthesized by Fmoc-based solid-phase peptide synthesis using model Liberty microwave-assisted peptide synthesizer (CEM Corporation, Matthews, N.C.). The peptides were purified to apparent homogeneity by reversed-phase HPLC and their masses were confirmed by mass spectrometry. Peptides were diluted in: Tris 50 mM, 100 mM NaCl, 0.5 mM DTT, and 0.1 mg/ml bovine serum albumen to a final concentration of 30 ng/ml. Reaction buffer consisted of 0.1 mg/ml BSA, 35 mM Tris pH 7.5, 25 mM NaCl, 2.0 mM MgCl2, 270 μM DTT, 500 μM EDTA, 419 nM Okadaic acid (in 0.63% ethanol), 25 mM CaCl2. Titanium oxide plates were pre-incubated with a binding buffer consisting of 0.1% acetic acid in 10% acetonitrile. […]

calcineurin [2] = test: Fluorimetric calcineurin assay in isolated PBMCs (PMA or anti-CD3 stimulation, in vitro calcineurin inhibitors); format: cell-based, human
Experimental: It was also shown that the fold change in calcineurin activity in response to anti-CD3 was sensitive to tacrolimus inhibition. Thus, PBMCs from control subjects were incubated with increasing amounts of tacrolimus before the anti-CD3 stimulation and the calcineurin activity was then measured.
It was further determined whether in vitro addition of calcineurin inhibitors could further inhibit calcineurin activity in samples from transplant subjects.
(i) Collection of samples. Heparinized blood can be obtained by routine phlebotomy and PBMC isolated and frozen in 10% DMSO. Samples will be thawed and viability confirmed prior to treatment.
(ii) Treatment of T cells. Three parameters of calcineurin activity: 1) base-line levels of the enzyme; 2) the increase in calcineurin in response to general stimuli; and, 3) the response of calcineurin to T cell receptor specific activation.
PBMCs were thawed, viable cells counted and then separated into aliquots of about 2×10^5 cells. Based on preliminary experiments, samples were treated with anti-CD3 (Muromonab, 10 μg/ml) antibodies for 15 mins at 37° C. Based on preliminary dose and time curves, PMA was added to aliquots for 5 mins. Control samples were included with either no treatment or adjuvant-only (DMSO). These manipulations yielded base-line activity, maximum non-specific activation, and TCR-stimulated activity.
(iii) 20 μl diluted peptide substrate, 20 μl of reaction buffer, and 20 μl of sample were loaded into individual wells of a 96-well plate and incubated at 30° C. for 10 minutes. During the reaction time, a 96-well plate with titanium oxide-coated wells was prepared by adding 50 μl binding buffer (0.1% acetic acid in 10% acetonitrile) per well. After the incubation period, reactions were transferred into prepared titanium oxide-coated wells following by gentle shaking for 5 minutes. The contents of each well were then removed to a white 96-well plate preloaded with 20 μl of 3N ammonium hydroxide.

calcineurin [3] = test: Radiometric calcineurin assay, basal activity in isolated CD3+/4+ T cells treated in vitro; format: cell-based, human; conditions: for inhibition of basal calcineurin activity: 5 ng/ml
Experimental: (§1) 40 mLs of heparinized blood was collected from the study participants. T cells were then isolated using the Prepacyte SC reagent (BioE WBP2000 St. Paul Minn.) antibody negative selection and Vitalyse (BioE KI-135) treated to eliminate remaining erythrocytes. Cells were pelleted by centrifugation, washed with 1× phosphate-buffered saline, and resuspended in RPMI 1640 containing penicillin/streptomycin antibiotics, 10% fetal calf serum, 2 mM 1-glutamine, 25 mM glucose, and 1 mM sodium pyruvate.
(§2) Calcineurin activity was determined using an in vitro assay as described in Fruman et al, Methods in Enzymology 9, 146-154 (1996) and Lea et al., J Am Soc Nephrol 13, 1750-1756 (2002), both of which are incorporated herein by reference in their entireties. Following treatment, isolated lymphocytes were pelleted and then re-suspended in calcineurin buffer ([…], 250 μM KCl, 10 mg/ml BSA, 5 mg/ml DTT, pH 7.5). Cells were then lysed by three cycles of freeze-thawing in liquid nitrogen and a 37° C. water bath. The concentration of harvested proteins was determined by the BCA method (Pierce Biotechnology, Rockford, Ill.) and then […] of sample was incubated with equal volumes of calcineurin reaction buffer (100 nM calmodulin, 0.1 mM CaCl, 25 μgs calyculin, 3 μg cold RII peptide) and 30 γ^32P[ATP]-labeled RII peptide substrate.
(§3) The reaction was allowed to proceed for 10 minutes, and then 10 mgs/ml charcoal/TCA solution was added to each sample to stop the reaction. Finally, samples were passed through millipore filtration buckets, scintillation fluid added, and the amount of released phosphates read in an automated counter. Reactions were performed in triplicate and final data for subjects were calculated as the mean of triplicate samples minus control reactions to normalize for background.
To ensure that calcineurin activity was measured in a uniform population of cells, experiments were performed in isolated lymphocytes that were enriched for CD3^+/4^+ T cells using erythrocyte lysis, gradient centrifugation, and Prepacyte SC reagent (BioE, St. Paul Minn.).
First, T cells were isolated from control subjects and were then treated in vitro with vehicle (DMSO) or 5 ng/ml tacrolimus for 15 minutes.

calcineurin [4] = test: Radiometric calcineurin assay in isolated T cells after T cell receptor stimulation with anti-CD3/anti-CD28 antibodies, with or without inhibitor pre-treatment; format: cell-based, human; conditions: for effect of pre-treatment on anti-CD3/anti-CD28-stimulated calcineurin activity (words): control T cells, tacrolimus/FK506 5 ng/ml, cyclosporine A printed as 500 ng/ml, 5 μg/ml or 5 mg/ml
Experimental: as §1, §2, §3
T cell isolates were stimulated for 15 minutes with multiple agents including calcium ionophore, phorbal myristate […] (PMA), and anti-CD3/CD28 antibodies. […] Next, T cells were pre-treated for 30 minutes with cyclosporine (5 mg/ml) or FK506 (5 ng/ml) and then CD3/CD28-mediated stimulation was measured.

[5] = human, in vivo
Experimental: Stimulation of calcineurin activity was also determined for caucasian and African-American transplant patients. […] Trough blood levels of FK506 for both caucasian and African-American transplant patients were obtained at the time of T cell isolation.

Molecule: NC(=O)CC[C@@H]1NC(=O)[C@H](Cc2ccccc2)NC(=O)[C@H](Cc2ccc(O)cc2)NC(=O)[C@@H](N)CSSC[C@@H](C(=O)N2CCC[C@H]2C(=O)N[C@@H](CCCN=C(N)N)C(=O)NCC(N)=O)NC(=O)[C@H](CC(N)=O)NC1=O [Arginine vasopressin (AVP), arginine vasopressin]
stimulation of calcineurin activity (calcineurin [1]): significantly stimulated calcineurin activity

Molecule: O=C(O)CN(CCOCCOCCN(CC(=O)O)CC(=O)O)CC(=O)O [EGTA]
effect on dephosphorylation by recombinant calcineurin (recombinant calcineurin): significantly reduced

Molecule: CCCCCCCCCCCCCC(=O)O[C@@H]1[C@@H](C)[C@@]2(O)[C@@H](C=C(CO)C[C@]3(O)C(=O)C(C)=C[C@@H]23)[C@@H]2C(C)(C)[C@]12OC(C)=O [PMA, phorbol myristate acetate]
stimulation of calcineurin activity (calcineurin [2]; control PBMCs): stimulated calcineurin activity in control cells | stimulation of calcineurin activity (calcineurin [2]; transplant recipient-derived PBMCs): not in the transplant recipient-derived PBMC samples | stimulation of calcineurin activity (calcineurin [1]): significantly stimulated calcineurin activity

mean plasma level [5]: 11.4 ng/mL
Molecule: C=CC[C@@H]1/C=C(\C)C[C@H](C)C[C@H](OC)[C@H]2O[C@@](O)(C(=O)C(=O)N3CCCC[C@H]3C(=O)O[C@H](/C(C)=C/[C@@H]3CC[C@@H](O)[C@H](OC)C3)[C@H](C)[C@@H](O)CC1=O)[C@H](C)C[C@@H]2OC [tacrolimus]
effect on basal calcineurin activity (calcineurin [3]; control T cells (N=81), 5.0 ng/ml in vitro, p<0.001): significantly decreased calcineurin activity | calcineurin activity after in vitro tacrolimus (calcineurin [3]; control subjects' T cells, 5 ng/ml for 15 minutes, vehicle (DMSO) 913±6): 662±6 fmole/μg protein/min | inhibition of basal calcineurin activity (calcineurin [3]; female control subjects): 30±4% | inhibition of basal calcineurin activity (calcineurin [3]; male control subjects): 27±4% | effect of pre-treatment on anti-CD3/CD28-stimulated calcineurin activity (calcineurin [4]; African-American control subjects, listed as FK506): neither cyclosporine A nor FK506 significantly reduced calcineurin activity; also recorded: neither cyclosporine nor FK506 pre-treatment inhibited calcineurin activity | effect of pre-treatment on anti-CD3/CD28-stimulated calcineurin activity (calcineurin [4]; caucasian control subjects): inhibited | effect of pre-treatment on anti-CD3/anti-CD28-stimulated calcineurin activity (words) (calcineurin [4]): blocked the CD3/CD28 stimulation; also recorded: blocked the rise in calcineurin activity; also recorded: effective at blocking the induction | effect of pre-treatment on anti-CD3/anti-CD28-stimulated calcineurin activity (words) (calcineurin [4]; listed as FK506): significantly reduced CD3/CD28-mediated calcineurin activity; also recorded: blocked stimulation | effect on fold change in calcineurin activity with anti-CD3 stimulation (calcineurin [2]; control PBMCs incubated with increasing amounts before anti-CD3 stimulation): inhibited by tacrolimus in a dose-dependent fashion; also recorded: inhibited in control PBMCs in a dose-responsive manner | effect of pre-treatment on PMA-stimulated calcineurin activity (calcineurin [1]): blocked stimulation by PMA

Molecule: anti-CD3: anti-CD3 (Muromonab, 10 μg/ml) antibodies for TCR-specific activation without co-stimulation
stimulation of calcineurin activity (calcineurin [2]; control PBMCs): observed only in control PBMCs
